# Like-named read-outs stand apart in the source and are kept apart here.
# Columns and labels:
# [1] = test system: MCP-1 response in THP-1 cells; assay: Calcium flux in THP-1 cells stimulated with human MCP-1 (FLIPR); type: cell-based; conditions: read-out: Calcium Flux IC50
# Experimental: Compounds of were evaluated for their effect on calcium flux using methodology known in the art, e.g., Neote et al., Cell 1993, 72:415–425. Briefly, THP-1 cells were incubated with the fluorescence dye FLUO-4 for 1 hour, the cells were washed after this loading period, resuspended in HANKs buffer, and loaded into a 384-well plate. The cells were then incubated in the presence of a compound of Example 1–12, 14, 18, 22–23, 27–28, 30, or [bis-(4-chloro-phenyl)-methanesulfonyl]-acetic acid methyl ester. After a 30-minute incubation period, the cells were stimulated with 33 nM human MCP-1 and the calcium flux response recorded and quantified with a FLIPR^384® (384-well Fluorometric Imaging Plate Reader) ([…], Sunnyvale, Calif.). The IC50's (μM) of the inhibition of the maximal MCP-1 response are set out in Table 1.
# [2] = biological target: T1, MCP-1 receptor (300-19 cell membranes) (Homo sapiens, UniProt P41597); assay: Inhibition of binding of 125I-MCP-1 to 300-19 cell membranes
# T1 construct: host or cells: 300-19 cells (membrane preparation)
# T1 sequence (P41597 whole entry): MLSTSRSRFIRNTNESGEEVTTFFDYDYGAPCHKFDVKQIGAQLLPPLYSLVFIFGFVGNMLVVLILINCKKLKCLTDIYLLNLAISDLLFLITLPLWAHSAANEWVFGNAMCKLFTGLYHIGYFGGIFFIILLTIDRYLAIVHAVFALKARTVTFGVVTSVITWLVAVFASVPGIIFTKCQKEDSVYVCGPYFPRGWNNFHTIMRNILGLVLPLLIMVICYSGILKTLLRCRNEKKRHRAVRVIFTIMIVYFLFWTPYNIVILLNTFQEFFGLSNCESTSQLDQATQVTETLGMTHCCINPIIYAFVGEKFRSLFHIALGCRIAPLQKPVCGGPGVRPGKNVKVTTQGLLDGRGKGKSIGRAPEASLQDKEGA
# Experimental: Compounds were also assayed for their ability to inhibit the binding of radiolabeled MCP-1 to cell membranes. The materials and methods are set out below.
# Membrane Preparation. 300-19 cells were harvested by centrifugation and washed with PBS (Dulbecco's phosphate-buffered saline w/o Ca and Mg). Cells were frozen at −80° C. overnight then resuspensed in ice cold lysis buffer (5 mM HEPES, 2 mM EDTA, 10 μg/mL of leupeptin, aprotinin, and chymostatin, and 200 μg/mL PMSF). The cell suspension was centrifuged at 1,000 rpm for 10 minutes and the supernatant was transferred and centrifuged at 14,000 rpm for 45 minutes at 4° C. then discarded. The resulting pellet was resuspended in stock buffer (10 mM HEPES, 300 mM sucrose, 20 μg/mL of leupeptin, aprotinin, and chymostatin, and 200 μg/mL PMSF), aliquoted, and frozen at −80° C. until use. Typical binding assays used 1.0 μg/well protein.
# Prepared membranes were resuspended in binding buffer (50 mM Tris, 10 mM MgCl2, 1 mM EDTA pH 7.4) at 10 μg/mL protein. Membranes (1.0 μg/well) were incubated with ^125I-MCP-1 (0.15 nM) in the absence or presence of unlabeled chemokine (465 nM) or a compound of Examples 1–11, 14, 16, 19, 22, 27–30, 33–34, or [bis-(4-chloro-phenyl)-methanesulfonyl]-acetic acid methyl ester (0.001 μM–40 μM) for 3 hours at room temperature in a 96-well plate (total volume 250 μL). The reaction was terminated by filtration using a 96-well plate harvester (Packard Filtermate 196 Harvester). Filters (Packard GF/C) were prewet with 0.3% PEI containing 0.5% BSA and washed 5 times with wash buffer (DPBS, 0.3 MnCl2, and 0.25% BSA) prior to reaction termination. After terminating the reaction, filters were washed 6 times with wash buffer, and allowed to dry overnight. Scintillation fluid (Packard's Micro Scint 20) was added to each well and radioactivity bound was determined by liquid scintillation spectrometry. Nonspecific binding was determined in the presence of 465 nM unlabeled MCP-1. The IC50's (μM) of the inhibition of the binding of the iodinated MCP-1 are set out in Table 2.
# [3] = 0.5 h, THP-1 cells, 30-minute incubation, stimulated with 33 nM human MCP-1, inhibition of the maximal MCP-1 response
# [4] = 300-19 cell membranes 1.0 μg/well, 125I-MCP-1 0.15 nM, 3 hours at room temperature, read-out: IC50 of the inhibition of the binding of the iodinated MCP-1
SMILES,melting point,"IC50 ([1]; Homo sapiens, THP-1, 0.5 h)",IC50 [2],"IC50 [1, 3]","IC50 [2, 4]"
O=C(COc1ccc(F)cc1F)CS(=O)(=O)C(c1ccc(Cl)cc1)c1ccc(Cl)cc1,54 to 56 °C,–,–,–,–
C/C=C/C(=O)CS(=O)(=O)C(c1ccc(Cl)cc1)c1ccc(Cl)cc1,114 to 116 °C,–,–,–,–
CN(C)C(=O)c1ccc(C(=O)CSC(c2ccc(Cl)cc2)c2ccc(Cl)cc2)s1,150 to 151 °C,–,–,–,–
CC(C)(C)C(=O)CS(=O)(=O)C(c1ccc(Cl)cc1)c1ccc(Cl)cc1,128 to 130 °C,–,–,–,–
O=C(CCc1ccccc1)CS(=O)(=O)C(c1ccc(Cl)cc1)c1ccc(Cl)cc1,106 to 107 °C,–,–,–,–
CC(=O)CCS(=O)(=O)C(c1ccc(Cl)cc1)c1ccc(Cl)cc1,103 to 105 °C,–,–,–,–
CC(=O)OCC(=O)CS(=O)(=O)C(c1ccc(Cl)cc1)c1ccc(Cl)cc1,57 to 60 °C,–,–,–,–
O=C(CC(F)(F)F)CS(=O)(=O)C(c1ccc(Cl)cc1)c1ccc(Cl)cc1,48 to 50 °C,–,–,–,–
CC(C)Cc1ccc(C(c2ccc(Cl)cc2)S(=O)(=O)CC(=O)C(F)(F)F)cc1 (stereo not shown),45 to 50 °C,–,–,–,–
"CC(=O)CS(=O)(=O)C(c1ccc(Cl)cc1)c1ccc(Cl)cc1 [Example 1, 1-[Bis-(4-chloro-phenyl)-methanesulfonyl]-propan-2-one]",114 to 115 °C,2200 nM,1150 nM,–,–
"CCC(=O)CS(=O)(=O)C(c1ccc(Cl)cc1)c1ccc(Cl)cc1 [Example 2, 1-[Bis-(4-chloro-phenyl)-methanesulfonyl]-butan-2-one]",–,7650 nM,7370 nM,–,–
"O=C(CBr)CS(=O)(=O)C(c1ccc(Cl)cc1)c1ccc(Cl)cc1 [Example 3, 1-[Bis-(4-chloro-phenyl)-methanesulfonyl]-3-bromo-propan-2-one]",122 to 123 °C,–,–,1120 nM,165 nM
"O=C(CS(=O)(=O)C(c1ccc(Cl)cc1)c1ccc(Cl)cc1)c1ccco1 [Example 5, 2-[Bis-(4-chloro-phenyl)-methanesulfonyl]-1-furan-2-yl-ethanone]",138 to 139 °C,–,–,7250 nM,2550 nM
"CC#CC(=O)CS(=O)(=O)C(c1ccc(Cl)cc1)c1ccc(Cl)cc1 [Example 6, 1-[Bis-(4-chloro-phenyl)-methanesulfonyl]-pent-3-yn-2-one]",–,–,–,1340 nM,–
"O=C(Cc1ccccc1)CS(=O)(=O)C(c1ccc(Cl)cc1)c1ccc(Cl)cc1 [Example 9, 1-[Bis-(4-chloro-phenyl)-methanesulfonyl]-3-phenyl-propan-2-one]",54 to 56 °C,–,–,2900 nM,6300 nM
"O=C(COc1ccccc1)CS(=O)(=O)C(c1ccc(Cl)cc1)c1ccc(Cl)cc1 [Example 10, 1-[Bis-(4-chloro-phenyl)-methanesulfonyl]-3-phenoxy-propan-2-one]",110 to 112 °C,–,–,984 nM,3450 nM
"COc1ccc(OCC(=O)CS(=O)(=O)C(c2ccc(Cl)cc2)c2ccc(Cl)cc2)cc1 [Example 11, 1-[Bis-(4-chloro-phenyl)-methanesulfonyl]-3-(4-methoxy-phenoxy)-propan-2-one]",116 to 117 °C,–,–,4750 nM,3400 nM
"O=C(COc1ccc(Cl)cc1)CS(=O)(=O)C(c1ccc(Cl)cc1)c1ccc(Cl)cc1 [Example 12, 1-[Bis-(4-chloro-phenyl)-methanesulfonyl]-3-(4-chloro-phenoxy)-propan-2-one]",105 to 107 °C,–,–,8150 nM,–
"COCC(=O)CS(=O)(=O)C(c1ccc(Cl)cc1)c1ccc(Cl)cc1 [Example 14, 1-[Bis-(4-chloro-phenyl)-methanesulfonyl]-3-methoxy-propan-2-one]",124 to 125 °C,3900 nM,1350 nM,–,–
"Cn1ccnc1C(=O)CS(=O)(=O)C(c1ccc(Cl)cc1)c1ccc(Cl)cc1 [Example 16, 2-[Bis-(4-chloro-phenyl)-methanesulfonyl]-1-(1-methyl-1H-imidazol-2-yl)-ethanone]",160 to 161 °C,–,–,–,12700 nM
"CN(C)C(=O)c1ccc(C(=O)CS(=O)(=O)C(c2ccc(Cl)cc2)c2ccc(Cl)cc2)s1 [Example 18, 5-(2-[Bis-(4-chloro-phenyl)-methanesulfonyl]-acetyl)-thiophene-2-carboxylic acid dimethylamide]",192 to 194 °C,–,–,5200 nM,–
"O=C(CS(=O)(=O)C(c1ccc(Cl)cc1)c1ccc(Cl)cc1)c1cccs1 [Example 19, 2-[Bis-(4-chloro-phenyl)-methanesulfonyl]-1-thiophen-2-yl-ethanone]",150 to 151 °C,–,–,–,6150 nM
"COC(=O)CC(=O)CS(=O)(=O)C(c1ccc(Cl)cc1)c1ccc(Cl)cc1 [Example 22, 4-[Bis-(4-chloro-phenyl)-methanesulfonyl]-3-oxo-butyric acid methyl ester]",76 to 78 °C,–,–,2470 nM,1270 nM
"O=C(CC(=O)Nc1ccccc1Cl)CS(=O)(=O)C(c1ccc(Cl)cc1)c1ccc(Cl)cc1 [Example 23, 4-[Bis-(4-chloro-phenyl)-methanesulfonyl]-N-(2-chloro-phenyl)-3-oxo-butyramide]",92 to 95 °C,–,–,1520 nM,–
"O=C(CS(=O)(=O)Cc1ccccc1)CS(=O)(=O)C(c1ccc(Cl)cc1)c1ccc(Cl)cc1 [Example 27, 1-[Bis-(4-chloro-phenyl)-methanesulfonyl]-3-phenylmethanesulfonyl-propan-2-one]",72 to 90 °C,–,–,6520 nM,2700 nM
"O=S(=O)(CC(O)(O)C(F)(F)F)C(c1ccc(F)cc1)c1ccc(F)cc1 [Example 28, 3-[Bis(4-fluorophenyl)methanesulfonyl]-1,1,1-trifluoropropane-2,2-diol]",–,417 nM,210 nM,–,–
"O=S(=O)(CC(O)(O)C(F)(F)F)C(c1ccc(C(F)(F)F)cc1)c1ccc(C(F)(F)F)cc1 [Example 29, 3-[Bis(4-trifluoromethyl-phenyl)methanesulfonyl]-1,1,1-trifluoropropane-2,2-diol]",–,–,–,–,3000 nM
"O=S(=O)(CC(O)(O)C(F)(F)F)C(c1ccc(Cl)cc1)c1ccc(Cl)c(Cl)c1 (stereo not shown) [Example 30, 3-[(4-Chlorophenyl)-(3,4-dichlorophenyl)methanesulfonyl]-1,1,1-trifluoropropane-2,2-diol]",–,–,–,393 nM,77 nM
"O=C(Cc1ccc(F)cc1)CS(=O)(=O)C(c1ccc(Cl)cc1)c1ccc(Cl)cc1 [Example 33, 1-[Bis-(4-chloro-phenyl)-methanesulfonyl]-3-(4-fluoro-phenyl)-propan-2-one]",106 to 107 °C,–,–,–,14500 nM
"O=C(CS(=O)(=O)C(c1ccc(Cl)cc1)c1ccc(Cl)cc1)c1ccccn1 [Example 34, 2-[Bis-(4-chloro-phenyl)-methanesulfonyl]-1-pyridin-2-yl-ethanone]",120 to 121 °C,–,–,–,4250 nM

# — US7067538B2, “MCP-1 receptor antagonists and methods of use thereof” (Warner-Lambert Company, LLC, priority 2002, dated 2006)
